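Results reflect a 48-hour exposure of cells in 96-well plates to compound at five concentrations. The concentration for full growth arrest is given as TGI.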
How the values were obtained:
Assay in all cases: growth of human tumour cells (NCI), 48 h
A549 NSCLC = tested on: A549 NSCLC
CCRF-CEM leukemia = tested on: CCRF-CEM leukemia
MCF7 breast = tested on: MCF7 breast
NCI-H460 lung = tested on: NCI-H460 lung
OVCAR-8 ovarian = tested on: OVCAR-8 ovarian
RPMI-8226 leukemia = tested on: RPMI-8226 leukemia
SK-MEL-2 melanoma = tested on: SK-MEL-2 melanoma
SNB-19 CNS = tested on: SNB-19 CNS
T-47D breast = tested on: T-47D breast
TK-10 renal = tested on: TK-10 renal
UACC-62 melanoma = tested on: UACC-62 melanoma

| SMILES | TGI (A549 NSCLC) [µM] | TGI (CCRF-CEM leukemia) [µM] | TGI (MCF7 breast) [µM] | TGI (NCI-H460 lung) [µM] | TGI (OVCAR-8 ovarian) [µM] | TGI (RPMI-8226 leukemia) [µM] | TGI (SK-MEL-2 melanoma) [µM] | TGI (SNB-19 CNS) [µM] | TGI (T-47D breast) [µM] | TGI (TK-10 renal) [µM] | TGI (UACC-62 melanoma) [µM] |
| --- | --- | --- | --- | --- | --- | --- | --- | --- | --- | --- | --- |
| CC1=C(C(=O)OCCO[N+](=O)[O-])C(c2ccccc2C(F)(F)F)C(C(=O)OC(C)C)=C(C)N1 (configuration not stated) | > 100 | > 100 | 75.1 | 58.6 | 64.7 | > 100 | 29.7 | 78.3 | > 100 | 77.4 | 80.2 |
| C=C(C)CCC1CCCCC(CN(C)C)C1=O (configuration not stated) | > 100 | > 100 | > 100 | > 100 | > 100 | > 100 | > 100 | > 100 | > 100 | > 100 | > 100 |
| CCCCCCOc1ccc(NC2=C(Cl)C(=O)c3cccnc3C2=O)cc1 | 4.25 | > 10 | 2.65 | 3.8 | 4.56 | 2.53 | 4.43 | > 10 | 3.78 | 9.49 | 3.28 |
| O=C1CC(Br)c2c(Cl)sc(Cl)c21 (configuration not stated) | 45.4 | 2.15 | 13.8 | 34.8 | 10.4 | 6.45 | 32.3 | 37.8 | 16 | 7.3 | 25.1 |
| O=[N+]([O-])CC(SCc1ccccc1)c1ccc2c(c1)OCO2 (configuration not stated) | 21.8 | 8.74 | 9.73 | 37.9 | 19.2 | 4.03 | 39.3 | 28 | 47.7 | 25.2 | 25.2 |
| Cc1ccc(C(=O)CC(Cl)=C(Cl)Cl)cc1 | > 100 | 52.1 | > 100 | > 100 | > 100 | 74.3 | > 100 | > 100 | > 100 | > 100 | > 100 |
| Cc1cccc2sc(NC(=O)c3cc([N+](=O)[O-])ccc3Cl)nc12 | 51.7 | 2.76 | > 100 | > 100 | 9.95 | > 100 | > 100 | > 100 | > 100 | 11.4 | > 100 |
